For 29 molecules, EC50 results are on record in patent US11318137B2, “Quinazoline compounds as modulators of Ras signaling” (VANDERBILT UNIVERSITY, priority 2017, dated 2022).

pEC50: −log10 of the molar value.

For the assay, the target named is T1, SOS-mediated nucleotide exchange on Ras (Homo sapiens, UniProt Q07889).
T1 sequence (Q07889 1-1333): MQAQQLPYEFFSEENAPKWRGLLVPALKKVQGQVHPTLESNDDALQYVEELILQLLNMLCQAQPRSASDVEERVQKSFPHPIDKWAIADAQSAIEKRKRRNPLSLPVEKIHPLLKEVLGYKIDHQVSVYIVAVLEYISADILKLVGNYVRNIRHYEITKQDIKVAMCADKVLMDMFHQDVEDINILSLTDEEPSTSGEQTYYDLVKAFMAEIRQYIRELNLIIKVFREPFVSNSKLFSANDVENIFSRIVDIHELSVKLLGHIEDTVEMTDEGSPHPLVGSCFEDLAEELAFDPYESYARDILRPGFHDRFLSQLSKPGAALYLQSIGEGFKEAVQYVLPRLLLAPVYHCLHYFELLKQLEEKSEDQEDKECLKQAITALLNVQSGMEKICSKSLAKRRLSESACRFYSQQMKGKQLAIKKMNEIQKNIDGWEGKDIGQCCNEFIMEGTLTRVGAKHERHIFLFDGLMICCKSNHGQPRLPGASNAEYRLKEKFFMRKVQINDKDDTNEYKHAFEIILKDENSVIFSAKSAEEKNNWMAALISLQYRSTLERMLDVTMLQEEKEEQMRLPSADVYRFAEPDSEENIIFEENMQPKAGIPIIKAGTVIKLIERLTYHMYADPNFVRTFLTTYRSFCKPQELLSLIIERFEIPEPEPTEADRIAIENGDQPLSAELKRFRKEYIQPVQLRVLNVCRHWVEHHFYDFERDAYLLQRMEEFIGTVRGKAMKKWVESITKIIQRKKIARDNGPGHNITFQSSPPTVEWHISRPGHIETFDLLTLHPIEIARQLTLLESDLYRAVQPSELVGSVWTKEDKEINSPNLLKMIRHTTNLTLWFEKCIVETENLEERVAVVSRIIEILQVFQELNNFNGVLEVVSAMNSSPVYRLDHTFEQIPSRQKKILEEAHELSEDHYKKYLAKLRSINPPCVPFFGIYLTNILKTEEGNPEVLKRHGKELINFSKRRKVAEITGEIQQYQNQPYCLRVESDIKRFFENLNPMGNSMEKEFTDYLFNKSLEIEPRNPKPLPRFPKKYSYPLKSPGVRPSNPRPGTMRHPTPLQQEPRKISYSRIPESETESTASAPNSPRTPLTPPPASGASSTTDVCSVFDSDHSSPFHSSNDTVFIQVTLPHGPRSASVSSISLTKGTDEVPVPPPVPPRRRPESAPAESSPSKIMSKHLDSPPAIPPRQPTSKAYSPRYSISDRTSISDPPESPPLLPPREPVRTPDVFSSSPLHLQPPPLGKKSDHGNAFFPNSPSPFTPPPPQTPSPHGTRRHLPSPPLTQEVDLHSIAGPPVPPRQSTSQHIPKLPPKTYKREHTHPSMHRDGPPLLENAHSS
The assay can be described thus: SOS-mediated nucleotide exchange on Ras (BODIPY-GDP fluorescence). It is filed as biochemical. Conditions: Ras loaded with BODIPY-GDP, GTP and SOS added; EC50 from derived exchange rates. As for the experimental part:
A. SOS-Mediated Nucleotide Exchange on Ras
Compounds of the present invention were tested for their ability to modify the rate at which Ras exchanges a labeled nucleotide guanosine diphosphate (GDP) analog for guanosine triphosphate (GTP). Briefly, test compounds, then GTP and the Ras GEF SOS (Son of Sevenless) are added to a buffered solution containing Ras protein loaded with BODIPY-GDP. Changes in fluorescence indicating exchange of the labeled GDP for GTP are monitored over time. Raw fluorescence data was fit to a single exponential decay function and derived rates were plotted as mean values. EC50 values were calculated by plotting mean derived rates as a function of compound concentration and fit using a four-parameter dose-response curve. Full assay details are disclosed in: Burns, M. C.; Sun, Q.; Daniels, R. N.; Camper, D. V.; Kennedy, J. P.; Phan, J.; Olejniczak, E. O.; Lee, T.; Waterson, A. G.; Rossanese, O. W.; Fesik, S. W. “Approach for targeting Ras with small molecules that activate SOS-mediated nucleotide exchange” Proc. Natl. Acad. Sci. 2014; 11(9): 3401-3406. PMCID: PMC3948241.
On to `C[C@@H](Nc1nc(Nc2cc(F)c(F)c(F)c2)nc2ccccc12)C1CC1` [Example 6, (R)—N^4-(1-cyclopropylethyl)-N^2-(3,4,5-trifluorophenyl)quinazoline-2,4-diamine], for which the pEC50 – broadly, −log10 of the EC50, conventionally taken in molar units – was 4.52 to 5.30.

As for `FC(F)(F)Oc1cccc(Nc2nc(NCc3cccs3)c3ccccc3n2)c1` [Example 7, N^4-(thiophen-2-ylmethyl)-N^2-(3-(trifluoromethoxy)phenyl)quinazoline-2,4-diamine], the pEC50 is 4.52 to 5.30. The molecule `FC(F)(F)c1cccc(Nc2nc(NCc3ccco3)c3ccccc3n2)c1` [Example 8, N^44-(furan-2-ylmethyl)-N^2-(3-(trifluoromethyl)phenyl)quinazoline-2,4-diamine] showed a pEC50 of 4.52 to 5.30. In the case of `c1coc(CNc2nc(Nc3ccc4c(c3)CCC4)nc3ccccc23)c1` [Example 10, N^2-(2,3-dihydro-1H-inden-5-yl)-N^4-(furan-2-ylmethyl)quinazoline-2,4-diamine], the negative-log EC50 (pEC50) was 4.52 to 5.30. Regarding `c1coc(CNc2nc(Nc3ccc4[nH]nnc4c3)nc3ccccc23)c1` [Example 11, N^2-(1H-benzo [d][1,2,3]triazol-5-yl)-N^4-(furan-2-ylmethyl)quinazoline-2,4-diamine], the pEC50 was less than 4.52.

On to `COc1cccc(CNc2nc(NCc3ccco3)c3ccccc3n2)c1` [Example 12, N^4-(furan-2-ylmethyl)-N^2-(3-methoxybenzyl)quinazoline-2,4-diamine], for which the pEC50 was 4.52 to 5.30. For the molecule `Oc1cccc(Nc2nc(NCc3cccs3)c3ccccc3n2)c1` [Example 13, 3-((4-((thiophen-2-ylmethyl)amino)quinazolin-2-yl)amino)phenol], the pEC50 was 4.52 to 5.30. `Cc1ccc(CNc2nc(Nc3ccc(F)c(Cl)c3)nc3ccccc23)o1` [Example 15, N^2-(3-chloro-4-fluorophenyl)-N^4-((5-methylfuran-2-yl)methyl)quinazoline-2,4-diamine] showed a pEC50 of 4.52 to 5.30. In turn, `CCC(C)CNc1nc(Nc2ccc(F)c(Cl)c2)nc2ccccc12` (centres unmarked) [Example 16, N^2-(3-chloro-4-fluorophenyl)-N^4-(2-methylbutyl)quinazoline-2,4-diamine] gave a pEC50 of 4.52 to 5.30. Molecule `c1ccc2c(NCC3CC3)nc(NCC3CCC3)nc2c1` [Example 17, N^2-(cyclobutylmethyl)-N^4-(cyclopropylmethyl)quinazoline-2,4-diamine] gave a pEC50 of 4.52 to 5.30. Molecule `c1ccc2c(NCC3CC3)nc(NCC3CCCO3)nc2c1` (centres unmarked) [Example 18, N^4-(cyclopropylmethyl)-N^2-((THF-2-yl)methyl)quinazoline-2,4-diamine] gave a pEC50 of less than 4.52. On to `CC(C)[C@@H](C)Nc1nc(Nc2cc(F)cc(F)c2)nc2ccccc12` [Example 20, (R)—N^2-(3,5-difluorophenyl)-N^4-(3-methylbutan-2-yl)quinazoline-2,4-diamine], for which the pEC50 is 4.52 to 5.30. As to `C[C@@H](Nc1nc(NCc2cccc(Cl)c2F)nc2ccccc12)C1CC1` [Example 25, (R)—N^2-(3-chloro-2-fluorobenzyl)-N^4-(1-cyclopropylethyl)quinazoline-2,4-diamine], the pEC50 was 5.30 to 6.00. As to `Cc1cccc(CNc2nc(N[C@H](C)C3CC3)c3ccccc3n2)c1F` [Example 26, (R)—N^4-(1-cyclopropylethyl)-N^2-(2-fluoro-3-methylbenzyl)quinazoline-2,4-diamine], the pEC50 is 5.30 to 6.00. For the molecule `C[C@@H](Nc1nc(NCc2cccc(C(F)(F)F)c2)nc2ccccc12)C1CC1` [Example 28, (R)—N^4-(1-cyclopropylethyl)-N^2-(3-(trifluoromethyl)benzyl)quinazoline-2,4-diamine], the pEC50 was 4.52 to 5.30.

Molecule `C[C@@H](Nc1nc(NCc2ccccc2F)nc2ccccc12)C1CC1` [Example 29, (R)—N^4-(1-cyclopropylethyl)-N^2-(2-fluorobenzyl)quinazoline-2,4-diamine] showed a pEC50 of 4.52 to 5.30. `C[C@@H](Nc1nc(Nc2ccc(F)c(Cl)c2F)nc2ccccc12)C1CC1` [Example 30] had a pEC50 of 4.52 to 5.30. Then `CCC(CC)CNc1nc(Nc2ccc(F)c(Cl)c2)nc2ccccc12` [Example 31, N^2-(3-chloro-4-fluorophenyl)-N^4-(2-ethylbutyl)quinazoline-2,4-diamine], with 5.30 to 6.00. In turn, `c1ccc(CNc2nc(Nc3ccccc3)nc3ccccc23)cc1` [Example 33, N^4-benzyl-N^2-phenylquinazoline-2,4-diamine] had a pEC50 of 4.52 to 5.30. The molecule `C[C@@H](Nc1nc(Nc2cc(F)cc(F)c2)nc2ccccc12)C(C)(C)C` [Example 41, (R)—N^2-(3,5-difluorophenyl)-N^4-(3,3-dimethylbutan-2-yl)quinazoline-2,4-diamine] had a pEC50 of 5.30 to 6.00. As for `C[C@@H](Nc1nc(Nc2ccc(F)c(Cl)c2)nc2ccccc12)C1CCCC1` [Example 43, (R)—N^2-(3-chloro-4-fluorophenyl)-N^4-(1-cyclopentylethyl)quinazoline-2,4-diamine], the figure is 5.30 to 6.00. Then `CC[C@@H](Nc1nc(Nc2ccc(F)c(Cl)c2)nc2ccccc12)C1CCCC1` [Example 44, (R)—N^2-(3-chloro-4-fluorophenyl)-N^4-(1-cyclopentylpropyl)quinazoline-2,4-diamine], with less than 4.52. Consider `Fc1ccc(Nc2nc(N[C@@H](C3CC3)C(F)(F)F)c3ccccc3n2)cc1Cl` [Example 45, (S)—N^2-(3-chloro-4-fluorophenyl)-N^4-(1-cyclopropyl-2,2,2-trifluoroethyl)quinazoline-2,4-diamine], for which the pEC50 is less than 4.52.

Consider `C[C@@H](Nc1nc(Nc2ccc(F)c(Cl)c2)nc2c(Br)cccc12)C1CC1` [Example 46, (R)-8-bromo-N^2-(3-chloro-4-fluorophenyl)-N-(1-cyclopropylethyl)quinazoline-2,4-diamine], for which the pEC50 is less than 4.52. Then `C[C@@H](Nc1nc(Nc2ccc(F)c(Cl)c2)nc2c(C3CNC3)cccc12)C1CC1` [Example 61, (R)-8-(azetidin-3-yl)-N^2-(3-chloro-4-fluorophenyl)-N^4-(1-cyclopropylethyl)quinazoline-2,4-diamine], with 5.30 to 6.00; and `C[C@@H](Nc1nc(Nc2ccc(F)c(Cl)c2)nc2c(C3=CCNCC3)cccc12)C(C)(C)C` [Example 79, (R)—N^2-(3-chloro-4-fluorophenyl)-N^4-(3,3-dimethylbutan-2-yl)-8-(1,2,3,6-tetrahydropyridin-4-yl)quinazoline-2,4-diamine], with 4.52 to 5.30.

`Cc1cc(F)cc(Nc2nc(N[C@H](C)C(C)(C)C)c3cccc(C4=CCNCC4)c3n2)c1` [Example 80, (R)—N^4-(3,3-dimethylbutan-2-yl)-N^2-(3-fluoro-5-methylphenyl)-8-(1,2,3,6-tetrahydropyridin-4-yl)quinazoline-2,4-diamine] had a pEC50 of 5.30 to 6.00. For `Cc1cc(F)cc(Nc2nc(N[C@H](C)C(C)(C)C)c3cccc(CCN)c3n2)c1` [Example 83, (R)-8-(2-aminoethyl)-N^4-(3,3-dimethylbutan-2-yl)-N^2-(3-fluoro-5-methylphenyl)quinazoline-2,4-diamine], the pEC50 was 5.30 to 6.00.

`C[C@@H](Nc1nc(Nc2ccc(F)c(Cl)c2)nc2c(C3=CCNCC3)cccc12)c1cccs1` [Example 88, (R)—N^2-(3-chloro-4-fluorophenyl)-8-(1,2,3,6-tetrahydropyridin-4-yl)-N^4-(1-(thiophen-2-yl)ethyl)quinazoline-2,4-diamine] had a pEC50 of 5.30 to 6.00.
